The text below walks through data of article PMC6586154 (Clinical Pharmacology in Drug Development, 2018).

Series [1] in a line: Ertugliflozin-simvastatin drug-drug interaction study, plasma pharmacokinetics.
A short description of series [2]: Ertugliflozin-sitagliptin drug-drug interaction study, plasma pharmacokinetics. Conditions: for AUC(0-inf): po. In kind it is in vivo, human.
The nature of series [3]: Ertugliflozin-metformin drug-drug interaction study, plasma pharmacokinetics.
Series [4] is described as follows: Ertugliflozin-glimepiride drug-drug interaction study, plasma pharmacokinetics. In kind it is in vivo, human. Conditions: for GMR (90% CI) Cmax, analyte Glimepiride: Test Ertugliflozin + Glimepiride / Reference Glimepiride; for Tmax / AUC(0-t) / Cmax / half-life: oral.
Series [5] can be described thus: Ertugliflozin plasma PK summarized across all 4 DDI studies. In kind it is in vivo. Conditions: human, oral, 15 mg.
A short description of series [6]: Safety and tolerability across all 4 DDI studies. In kind it is in vivo, human. Conditions: single dose ertugliflozin 15 mg alone or in combination with sitagliptin, metformin, glimepiride, or simvastatin; healthy subjects.
For series [7] the following is noted: cited from earlier work.
In series [8] the test system is OAT3. Conditions: in vitro studies; cited from earlier work.
For series [9], the system named is OCT2. Conditions: in vitro studies; cited from earlier work.
A further series deals with P‐glycoprotein. Conditions: at clinically relevant concentrations; cited from earlier work.
Series [10] has as its system breast cancer resistance protein. Conditions: at clinically relevant concentrations; cited from earlier work.
The subject of the next series is OATP1B1. Conditions: cited from earlier work.
Another series concerns OATP1B3. Conditions: cited from earlier work.
The next series deals with OATP2B1. Conditions: cited from earlier work.
In another series the test system is OCT1. Conditions: cited from earlier work.
Another series deals with OAT1. Conditions: cited from earlier work.
Series [11] deals with OAT3. Conditions: cited from earlier work.
In series [12] the test system is OCT2. Conditions: cited from earlier work.
Where [13] appears, read: simvastatin 40 mg coadministered with ertugliflozin 15 mg vs alone.
[14] abbreviates: both, human, plasma, oral, 15 mg.

Consider `CCC(C)(C)C(=O)O[C@H]1C[C@@H](C)C=C2C=C[C@H](C)[C@H](CC[C@@H](O)C[C@@H](O)CC(=O)O)[C@H]21` [Simvastatin Acid, simvastatin acid], for which, in [1] (setting [13]), the “Increase in geometric mean AUCinf of simvastatin acid” value was 30% and the “Increase in geometric mean Cmax of simvastatin acid” value came to 16%.
One may read the half-life as the time needed for the level to fall by half in the phase considered. High values mean slow loss, low ones fast loss. As a reminder, the AUC(0-t) is the area under the concentration-time curve up to a stated or last time point. A word on the Cmax: it is the peak of the concentration-time curve. A word on the AUC(0-inf): it is total exposure, with the tail of the curve extrapolated. A lower AUC(0-inf) goes with less exposure. For the molecule `N[C@@H](CC(=O)N1CCn2c(nnc2C(F)(F)F)C1)Cc1cc(F)c(F)cc1F` [Sitagliptin, reference compound], the “GMR (90% CI) Cmax, analyte Sitagliptin” value in [2] (Test Ertugliflozin + Sitagliptin / Reference Sitagliptin) was 101.7 (91.7, 112.8) %. Also, the half-life in [2] (both, human, plasma, oral, 100 mg) is 11 ± 2.89 h. In series [2] (human, plasma, oral, 100 mg), this molecule gave an AUC(0-t) of 6.95 µM·h and a Cmax of 814 nM. This molecule also showed an AUC(0-inf) in [2] (human, plasma, 100 mg) of 7.02 µM·h.
For `CN(C)C(=N)N=C(N)N` [Metformin, reference compound], the “GMR (90% CI) Cmax, analyte Metformin” value in [3] (Test Ertugliflozin + Metformin / Reference Metformin) was 94.0 (82.9, 106.6) %. In addition, in series [3] (plasma, Metformin 1000 mg alone (N = 18), median (range)), the “Metformin Tmax” value is given as 2.00 (0.50–4.00) h.
The Tmax is the time at which the peak concentration occurs. As for `CCC1=C(C)CN(C(=O)NCCc2ccc(S(=O)(=O)NC(=O)N[C@H]3CC[C@H](C)CC3)cc2)C1=O` [Glimepiride], in [4], the “GMR (90% CI) Cmax, analyte Glimepiride” value is 97.4 (71.1, 133.5) %. Moreover, the “GMR (90% CI) Cmax, analyte Glimepiride” value in series [4] (listed as glimepiride) was found to be 97.4%. The Tmax in series [4] (both, human, plasma) lay within 1 to 12 h. In addition, in series [4] (both, human, plasma, 1 mg), the AUC(0-t) amounted to 218 ng·h/mL, the Cmax was 34.4 ng/mL and the half-life is 5.89 ± 2.79 h. Moreover, the AUC(0-inf) in [4] (both, human, plasma, po, 1 mg) came to 249 ng·h/mL. Further, the “Intrasubject variability for Cmax of glimepiride” value in series [4] (glimepiride 1 mg alone or with ertugliflozin 15 mg) stood at 53.5%.
In the case of `CCC(C)(C)C(=O)O[C@H]1C[C@@H](C)C=C2C=C[C@H](C)[C@H](CC[C@@H]3C[C@@H](O)CC(=O)O3)[C@H]21` [Simvastatin, reference compound], in series [1] (setting [13]), the “Increase in geometric mean AUCinf of simvastatin” value was determined as 24% and the “Increase in geometric mean Cmax of simvastatin” value worked out at 19%.
Turning to `CCOc1ccc(Cc2cc([C@]34OC[C@](CO)(O3)[C@@H](O)[C@H](O)[C@H]4O)ccc2Cl)cc1` [Ertugliflozin], the “GMR (90% CI) Cmax, analyte Ertugliflozin” value in [2] (Test Ertugliflozin + Sitagliptin / Reference Ertugliflozin) is on record as 98.2 (91.2, 105.7) %; in [4] (Test Ertugliflozin + Glimepiride / Reference Ertugliflozin), 98.2 (92.2, 104.6) %; in series [3] (Test Ertugliflozin + Metformin / Reference Ertugliflozin) it was 97.1 (88.8, 106.3) %; in [1] (Test Ertugliflozin + Simvastatin / Reference Ertugliflozin), 105.2 (98.3, 112.5) %. Besides, the AUC(0-t) amounted to 1430 ng·h/mL in series [2] (human, plasma, oral, 15 mg); 1230 ng·h/mL in series [4] (both, human, plasma, 15 mg); 1380 ng·h/mL in series [3] (setting [14]); 1380 ng·h/mL in series [1] (both, human, in vivo, 15 mg). Also, the peak concentration (Cmax) in [2] (human, plasma, oral, 15 mg) came out at 270 ng/mL; in series [4] (both, human, plasma, 15 mg), 146 ng/mL; in [3] (setting [14]), 279 ng/mL; in [1] (both, human, in vivo, 15 mg), 273 ng/mL. Further, the Tmax is 1 h in series [2] (human, plasma, oral, 15 mg); 2 h in [4] (both, human, plasma, 15 mg); 1 to 3 h in series [5]; 1.02 h in [3] (setting [14]). In series [2] (human, plasma, 15 mg), this molecule registered an AUC(0-inf) of 1460 ng·h/mL. Besides, the half-life in series [4] (both, human, plasma, 15 mg) was 10.6 ± 2.44 h; in [5], 10.6 to 12.6 h; in series [3] (setting [14]) it was 11.8 ± 2.34 h; in [1] (both, human, in vivo, 15 mg), 12.3 ± 3.07 h. Moreover, in series [6], the Tolerability entry is “well tolerated”. Also, in [7], the “Absolute (oral) bioavailability” value is recorded as “approximately 100%”. Further, in [7] (human, in vivo), the “Renal excretion of unchanged ertugliflozin” value is 1.5 % of the administered dose. Moreover, in series [7] (major metabolic pathway), the “Contribution of glucuronidation to metabolic clearance” value was 86%. The “Contribution of oxidative metabolism” value in series [7] (minor pathway) is reported as 12%. The “Inhibition of OAT3 transporter” value in the series on OAT3 [8] was “weak inhibitor”. Besides, in the series on OCT2 [9], the “Inhibition of OCT2 transporter” value was “weak inhibitor”. For the same molecule, the “Substrate of P‐glycoprotein efflux transporter” value with P‐glycoprotein is “substrate”. In series [10], the “Substrate of breast cancer resistance protein efflux transporter” value is “substrate”. The “Substrate of OATP1B1 uptake transporter” value in the series on OATP1B1 is reported as “not a substrate”. Further, in the series with OATP1B3, the “Substrate of OATP1B3 uptake transporter” value is “not a substrate”. Moreover, the “Substrate of OATP2B1 uptake transporter” value with OATP2B1 is “not a substrate”. Further, the “Substrate of OCT1 uptake transporter” value with OCT1 was “not a substrate”. The “Substrate of OAT1 uptake transporter” value in the series with OAT1 was “not a substrate”. In the series with OAT3 [11], the “Substrate of OAT3 uptake transporter” value was “not a substrate”. Also, the “Substrate of OCT2 uptake transporter” value with OCT2 [12] is recorded as “not a substrate”.
